Tests used:
NIH mice = assay: Acute toxicity assay in NIH mice; assay type: in vivo; settings: maximum dose, observed 14 days
Experimental: NIH mice, sex in half, for acute toxicity assay was supplied by Guangzhou Medicinal Experiment Animal Center and the animal qualification code was 44007200007090 and the certificate number was SCXK (Guangdong) 2013-0002. The animals were kept in the SPF-grade animal laboratory which was conformed to the SPF grade requirement of animal testing facility, where temperature was within the range of 22° C. (±2° C.) and the humidity was in the range of 30-70%. The diurnal lighting and darkness cycle was 12 hours. The air change per hour was in the range of 10-20 times. The approval no. of the SPF animal laboratory was SYXK (Guangdong) 2005-0062. The rat chow was the SPF-grade full pellet for mouse, which was bought from Guangdong Medicinal Laboratory Animal Center. The nutritional values and the sanitation condition were conformed to the SPF-grade requirement for animal testing. Antiseptic water were given ad libitum.
NIH mice were randomly divided into 6 groups. Ten NIH mice, sex in half, were assigned to for each group. […]

[1] = OPC proliferation (MTT assay); assay type: cell-based, rat; settings: rat, primary oligodendroglial progenitor cells (OPCs), 100 μM, read-out: OPC viability compared with the control group (cytotoxicity)
Experimental: (§1) FIGS. 10A, 10B and 10C show the effects of BHDPC in oligodendroglial progenitor cells (OPCs) proliferation. OPCs were incubated with the drugs at indicated concentrations in proliferation medium for 2 days. (FIG. 10A) The cell viability was measured by MTT assay.
(§2) The percentage of surviving cells was estimated by determining the activity of mitochondrial dehydrogenases with 3(4,5-dimethylthiazol-2-yl)-2,5-diphenyltetrazolium bromide (MTT) assay. After drug treatment, cells were incubated at 37° C. for 4 h in 0.5 mg/mL MTT solution. The medium was then removed, and 100 μL of DMSO was added to each well to dissolve the violet formazan crystals. The absorbance of the samples was measured at a wavelength of 570 nm with 655 nm as a reference wavelength. All values were normalized to the control groups.
(§3) Purified OPC cultures were prepared as described. In brief, primary rat mixed glial cell cultures were isolated from whole brains of postnatal day (P) 2 rats, dissociated into single cells, and cultured into poly-D-lysine (PDL) coated T75 tissue culture flasks. Plating medium consisted of Dulbecco's modified Eagle's medium (DMEM, Invitrogen, Carlsbad, Calif.) supplemented with 10% fetal bovine serum (FBS; Invitrogen, Carlsbad, Calif.), […]. Tissue cultures were maintained at 37° C. in a humidified 5% CO2 incubator, and medium was exchanged every 3 days. Once confluent (after 10-15 days), microglia were separated by mechanical shaking of flasks on a rotary shaker for […] at 250 rpm and removed. After addition of fresh medium, the remaining cells were allowed to recover overnight before repeating the mechanical shaking for an additional 16 h at 200 rpm to isolate OPCs. To ensure purity of OPC cultures, the isolated cells were transferred to a tissue culture dish, from which the loosely attached OPCs were detached by gentle shaking after 60 min, leaving behind attached microglia and astrocytes. OPCs were plated onto PDL coated 96 well plates using an automated dispenser and allowed to adhere to the plates over the next 1-2 days.
(§4) To test the effect of BHDPC on primary OPC culture, OPCs were treated with BHDPC for 48 h and the cell viability was determined using MTT assay. […] The proliferation activity of BHDPC was also confirmed by the EdU incorporative assay.

[2] = test system: oligodendroglial progenitor cells (OPCs); assay: OPC proliferation (MTT assay); assay type: cell-based, rat; settings: Rattus norvegicus, 48 h, read-out: OPC viability compared with the control group
Experimental: as §1, §2, §3, §4

COc1cc(C2C(C(=O)OCc3ccccc3)=C(C)Nc3nnnn32)ccc1O (stereo not shown) [BHDPC, benzyl 7-(4-hydroxy-3-methoxyphenyl)-5-methyl-4,7-dihydrotetrazolo[1,5-a]pyrimidine-6-carboxylate]
toxic effects (NIH mice; 5 mg/kg, iv): no toxic effects were observed | toxic effects (NIH mice; 10 mg/kg, oral gavage): no toxic effects were observed | viability at 48 h, 100 µM [1]: 65% | viability at 1 µM ([2]; 1 μM): 100% | viability at 3 µM ([2]; 3 μM): 106% | viability at 10 µM ([2]; 10 μM): 127% | viability at 30 µM ([2]; 30 μM): 152%

From US20160113931A1, “Method of treating and/or preventing neurodegenerative diseases” (University of Macau, priority 2014, published 2016)
